Assay results reported in patent publication US20180147183A1, “USE OF R-OXIRACETAM IN PHARMACEUTICAL FIELD” (Chongqing Runze Pharmaceutical Co., Ltd., priority 2015, published 2018).
Where “and” joins values, the source holds several entries; their conditions need not be identical. Equal entries are not always repeated. Marks after values point to notes of the source that are not given here.

What was measured:
[1] = cited from earlier work
[2] = tested on: Pentetrazol (PTZ) ignited rat epilepsy model; assay: Pentetrazol (PTZ)-ignited rat epilepsy model; format: in vivo, SD rats; settings: for Seizure latency (X ± SD) / occurrence rates of stage IV or above seizures: 500 mg/kg daily
Method: Rats were injected intraperitoneally with PTZ at a dose of 35 mg/kg (7 mg/ml, 0.5 ml/100 g body weight) for sub-convulsions three times weekly. The animals are weighed before each ip, and observed for behavioral changes after ip. within 1-2 h. Behavioral scoring was carried out according to the revised Racine score. Three consecutive occurrences of seizures of stage IV and above indicate successful ignition.
The animals successfully ignited were chosen to be grouped. The animals were randomly divided into 4 groups, 8-10/group. […] 3 times of clinical dose were chosen, that is, 500 mg/kg. […] The dosage is 1 ml/100 g, continuous intragastrical administration of 10 days. Specific dose settings are as follows:
PTZ 35 mg/kg. The animals are observed for behavioral changes within 2 h. Behavioral scoring was carried out according to the revised Racine score, continuous administration for 10 days, grading standards as mentioned above.
The seizures were recorded daily ip PTZ within 2 h. The seizure levels, latencies, mortality were recorded, and compared with the model control group.

[3] = tested on: lithium chloride-pilocarpine epilepsy model rat; assay: Lithium chloride-pilocarpine rat epilepsy model, prophylactic administration; format: in vivo, SD rats; settings: 10 rats; for mortality rate: within 1 to 7 days after modeling
From the text: Stages: epileptic seizures evaluation are categorized by Racine Stages
Stage 0: no signs of any seizure;
Stage I: staring, head and face slightly trembling;
Stage II: head nodding or wet dog-like shaking;
Stage III: forelimb limit convulsions;
Stage IV: full-body ankylosing convulsions with a standing hind limb;
Stage V: full-body ankylosing clonic seizures with standing with fell;
Partial epilepsy seizure occurs when any one of Stage Ito Stage III appears;
Generalized epilepsy seizure occurs when Stage IV or Stage V appears;
Status epilepticus (SE) occurs when Stage IV or Stage V lasts 30 minutes.
The rat epilepsy models were treated with lithium chloride-pilocarpine and used levetiracetam as positive control. The duration of acute seizures of lithium chloride-pilocarpine epilepsy model rat was selected as the observation time, and prophylactic administration was used.
Animals were randomly divided into 4 groups, 10/group. Levetiracetam was selected as a positive control, 1.5 times of clinical dose were chosen, that is, 150 mg/kg. The clinical dose of an adult is 800 mg/times, twice daily, that is, 1600 mg/60 kg, 26.7 mg/kg. The dose of a rat is converted to 160 mg/kg according to body surface area. R-oxiracetam and levorotatory oxiracetam were selected half of the dose, that is, 80 mg/kg, and 1.5 times is 120 mg/kg. The dose was 1 ml/100 g, and the rats were treated with continuous administration for 7 days. As levetiracetam administration of 1.3 h (80 min), the plasma concentration peak, so we choose the last 80 minutes after the last administration of modeling. As administration of levetiracetam for 1.3 h (80 min), the plasma concentration peak was reached, so each group was selected after the last 80 minutes after the start of modeling.
Modeling method: After several previous test, the following modeling method was chosen: Animal ip. Lithium chloride 3 mmol/kg (1.5 ml/L) 127 mg/kg (12.7 mg/ml, 1 ml/100 g body weight), 24 h, 37.5 mg/kg pilocarpine three times ip. mg/kg (2.5 mg/ml, 0.5 ml/100 g body weight) at intervals of 10 minutes. […]

[4] = Pharmacokinetics and bioavailability in dogs, plasma determined by LC-MS; format: in vivo, dog
Method: A. The Pharmacokinetics of R-Oxiracetam In Vivo and Studies of Bioavailability
4 Determination Methods of Oxiracetam and R-Oxiracetam in Plasma by LC-MS
4.1 Chromatographic Conditions
Mobile phase: methanol: water (5:95)
Column: ZORBAX SB-Aq (2.1×100 mm 3.5μ)
Column temperature: 30° C.;
Injection volume: […] 4.2 Mass Spectrometry Detection Parameters
Mass spectrometry ionization method: electrospray ionization (ESI); ion polarity Positive; scanning mode for multiple reactions monitoring (MRM); scanning time of 100 ms. The ionic reactions used for quantitative analysis were m/z (oxiracetam) m/z 159.0→m/z 113.9 and m/z 143.1→m/z 126.0 (piracetam), respectively.
20 μL of the drug-containing the plasma sample is taken in a 1.5 mL Eppendorf tube. 20 μL of piracetam (20 μg/mL) of the internal standard solution is added, and mixed by the vortex mixer for 30s. Then, 500 μL of acetonitrile is added thereto, vortex shaken for 5 min and centrifugated at 16000 rpm for 10 min. The supernatant from the centrifugation was passed through 1 ml of SPE C 18E column and the filtrate was collected, put into 38° C. constant temperature water bath and dried by nitrogen gas. 300 μL of mobile phase was dissolved and the injection volume was 10 μL.
20 μL of blank dog plasma was added into the working solution prepared from the oxiracetam standard. The concentrations of oxiracetam in the plasma were 0.167, 0.33, 0.37, 1.33, 2.67, 4.0, 6.67, 13.33 and 26.67 μg/mL, respectively. A sample was made for each concentration respectively according to the procedures“4.4 Extraction of plasma samples”. The ratio of the peak area (As) of oxiracetam to the peak area (Ai) of the internal standard piracetam (f=As/Ai) were calculated, and perform linear regression using the concentration (C) to the ratio (f). The weight parameter 1/x, and the oxiracetam regression equation: y=5.2117X−0.76985 (r=0.9970, weight 1/x).
20 μL of blank dog plasma was added into the working solution prepared from the R-oxiracetam standard. The concentrations of R-oxiracetam in the plasma were 0.167, 0.33, 0.37, 1.33, 2.67, 4.0, 6.67, 13.33 and 26.67 μg/mL, respectively. A sample was made for each concentration respectively according to the procedures “4.4 Extraction of plasma samples”. The ratio of the peak area (As) of R-oxiracetam to the peak area (Ai) of the internal standard piracetam (f=As/Ai) were calculated, and perform linear regression using the concentration (C) to the ratio (f). The weight parameter 1/x, and the oxiracetam regression equation: y=1.6811X−0.031244(r=0.9949, weight 1/x).

[5] = 120 mg/kg for 7 days before modeling
[6] = 150 mg/kg for 7 days before modeling

CCCC(CCC)C(=O)[O-].[Na+] [Sodium valproate, reference compound]
bioavailability ([1]; oral administration): ~100% | Seizure latency (X ± SD) ([2]; D1): 4.00 ± 1.41 m | occurrence rates of stage IV or above seizures ([2]; D1): 4/6 (66.7) % | Seizure latency (X ± SD) ([2]; D2): 5.67 ± 2.25 m | occurrence rates of stage IV or above seizures ([2]; D2): 3/6(50.0) % | Seizure latency (X ± SD) ([2]; D3): 5.67 ± 1.37 m | occurrence rates of stage IV or above seizures ([2]; D3): 3/6 (50.0) % | Seizure latency (X ± SD) ([2]; D4): 6.33 ± 1.63 m | occurrence rates of stage IV or above seizures ([2]; D4): 2/6 (33.3) % | occurrence rates of stage IV or above seizures ([2]; D5): 2/6 (33.3) % | occurrence rates of stage IV or above seizures ([2]; D6): 2/6 (33.3) % | occurrence rates of stage IV or above seizures ([2]; D7): 1/6* (16.7) % | occurrence rates of stage IV or above seizures ([2]; D8): 0/6** (0) % | occurrence rates of stage IV or above seizures ([2]; D9): 1/6 (16.7) % | Seizure latency (X ± SD) ([2]; D10): 8.33 ± 0.82 m | occurrence rates of stage IV or above seizures ([2]; D10): 0/6* (0) % | mortality rate ([2]; 500 mg/kg intragastric, 10 days): 0% | Numbers of deaths (Number) ([2]; 500 mg/kg intragastric, 10 days, 6 animals): 0

NC(=O)CN1C[C@@H](O)CC1=O [S-oxiracetam]
Latency Stage I [3, 5]: 16.9 ± 5.4 min | Latency Stage II [3, 5]: 26.7 ± 6.5 min | Latency Stage III [3, 5]: 35.4 ± 5.8 min | Latency Stage IV [3, 5]: 37.8 ± 7.4 min | Latency Stage V [3, 5]: 64.5 ± 23.2 min | Number of Deaths [3, 5]: 3 | Number of SE Animals [3, 5]: 4 | Number of seizures Stage I [3, 5]: 2.2 ± 1.0 times | Number of seizures Stage II [3, 5]: 5.2 ± 3.1 times | Number of seizures Stage III [3, 5]: 5.6 ± 4.2 times | Occurrence rate Stage I [3, 5]: 10% | Occurrence rate Stage II [3, 5]: 10% | Occurrence rate Stage III [3, 5]: 5% | Occurrence rate Stage IV [3, 5]: 4% | Occurrence rate Stage V [3, 5]: 4% | duration Stage IV [3, 5]: 27.5 ± 12.1 min | duration Stage V [3, 5]: 79.8 ± 29.5 min | mortality rate [3, 5]: 30%

NC(=O)CN1CC(O)CC1=O (racemic) [oxiracetam]
Concentration in dog blood C ([4]; Time 0 h, individual dogs, one table per dog): 0 µg/mL | Concentration in dog blood C ([4]; Time 0.25 h, individual dogs, one table per dog): 5.123 µg/mL and -4.948 µg/mL and 7.54 µg/mL and -4.135 µg/mL and 5.092 µg/mL | Concentration in dog blood C ([4]; Time 0.5 h, individual dogs, one table per dog): 41.65 µg/mL and 36.44 µg/mL and 42.03 µg/mL and 41.74 µg/mL and 42.35 µg/mL | Concentration in dog blood C ([4]; Time 1 h, individual dogs, one table per dog): 106.4271 µg/mL and 101.4101 µg/mL and 79.361 µg/mL and 58.87 µg/mL and 139.9638 µg/mL and 290.0656 µg/mL | Concentration in dog blood C ([4]; Time 1.25 h, individual dogs, one table per dog): 104.196 µg/mL and 77.73 µg/mL and 107.1773 µg/mL and 68.45 µg/mL and 302.273 µg/mL and 142.3659 µg/mL | Concentration in dog blood C ([4]; Time 1.5 h, individual dogs, one table per dog): 122.3267 µg/mL and 104.8567 µg/mL and 96.86 µg/mL and 192.3642 µg/mL and 186.4355 µg/mL | Concentration in dog blood C ([4]; Time 2 h, individual dogs, one table per dog): 161.1106 µg/mL and 146.1466 µg/mL and 100.65 µg/mL and 207.5351 µg/mL and 137.414 µg/mL and 228.0583 µg/mL | Concentration in dog blood C ([4]; Time 4 h, individual dogs, one table per dog): 52.39 µg/mL and 40.54 µg/mL and 28.94 µg/mL and 42.68 µg/mL and 21.07 µg/mL and 33.01 µg/mL | Concentration in dog blood C ([4]; Time 6 h, individual dogs, one table per dog): 8.396 µg/mL and 4.367 µg/mL and 4.934 µg/mL and 7.743 µg/mL and 29.76 µg/mL and 8.301 µg/mL | Concentration in dog blood C ([4]; Time 8 h, individual dogs, one table per dog): -3.894 µg/mL and -4.318 µg/mL and -4.781 µg/mL and -0.7456 µg/mL and -0.4657 µg/mL | Concentration in dog blood C ([4]; Time 12 h, individual dogs, one table per dog): -4.7308 µg/mL and -4.338 µg/mL and -8.257 µg/mL and -2.959 µg/mL and -6.329 µg/mL and -0.9584 µg/mL | Concentration in dog blood C ([4]; Time 24 h, individual dogs, one table per dog): 0 µg/mL and 21.66 µg/mL | concentration at 0 h ([4]; dog, plasma, Time 0 h, individual dogs, one table per dog, read-out: Concentration in dog blood C): 0 ng/mL | concentration at 0.25 h ([4]; dog, plasma, Time 0.25 h, individual dogs, one table per dog, read-out: Concentration in dog blood C): 4890 ng/mL | concentration at 0.5 h ([4]; dog, plasma, Time 0.5 h, individual dogs, one table per dog, read-out: Concentration in dog blood C): 28200 ng/mL | concentration at 1.5 h ([4]; dog, plasma, Time 1.5 h, individual dogs, one table per dog, read-out: Concentration in dog blood C): 148 µg/mL | concentration at 8 h ([4]; dog, plasma, Time 8 h, individual dogs, one table per dog, read-out: Concentration in dog blood C): 3120 ng/mL | Cmax ([4]; dog, plasma, dogs, mean ± SD): 202 ± 79.5 µg/mL

CC[C@@H](C(N)=O)N1CCCC1=O [Levetiracetam]
Latency Stage I [3, 6]: 17.6 ± 4.1 min | Latency Stage II [3, 6]: 22.6 ± 5.8 min | Latency Stage III [3, 6]: 34.6 ± 9.4 min | Latency Stage IV [3, 6]: 33.6 ± 8.3 min | Latency Stage V [3, 6]: 74.3 ± 24.3 min | Number of Deaths [3, 6]: 5 | Number of SE Animals [3, 6]: 7 | Number of seizures Stage I [3, 6]: 1.8 ± 0.8 times | Number of seizures Stage II [3, 6]: 4.4 ± 3.7 times | Number of seizures Stage III [3, 6]: 3.6 ± 2.3 times | Occurrence rate Stage I [3, 6]: 10% | Occurrence rate Stage II [3, 6]: 9% | Occurrence rate Stage III [3, 6]: 8% | Occurrence rate Stage IV [3, 6]: 7% | Occurrence rate Stage V [3, 6]: 7% | duration Stage IV [3, 6]: 23.3 ± 6.6 min | duration Stage V [3, 6]: 63.3 ± 19.0 min | mortality rate [3, 6]: 50% | time of plasma concentration peak after administration ([1]; in vivo): 1.3 h
